The record followed here is paper PMC7472660 (Chemical Science, 2019).

The target in this assay is prostate-specific membrane antigen (PSMA) (Homo sapiens, UniProt Q04609). As to the kind of experiment: radioligand displacement of […]mTc-MIP-1427 on PSMA+ PC-3 PiP cells. Type of assay: cell-based. On the technique in general: Loss of bound radioactivity is the signal in a displacement assay; it reports binding, not function.
Sequence of prostate-specific membrane antigen (PSMA) (Q04609 whole entry): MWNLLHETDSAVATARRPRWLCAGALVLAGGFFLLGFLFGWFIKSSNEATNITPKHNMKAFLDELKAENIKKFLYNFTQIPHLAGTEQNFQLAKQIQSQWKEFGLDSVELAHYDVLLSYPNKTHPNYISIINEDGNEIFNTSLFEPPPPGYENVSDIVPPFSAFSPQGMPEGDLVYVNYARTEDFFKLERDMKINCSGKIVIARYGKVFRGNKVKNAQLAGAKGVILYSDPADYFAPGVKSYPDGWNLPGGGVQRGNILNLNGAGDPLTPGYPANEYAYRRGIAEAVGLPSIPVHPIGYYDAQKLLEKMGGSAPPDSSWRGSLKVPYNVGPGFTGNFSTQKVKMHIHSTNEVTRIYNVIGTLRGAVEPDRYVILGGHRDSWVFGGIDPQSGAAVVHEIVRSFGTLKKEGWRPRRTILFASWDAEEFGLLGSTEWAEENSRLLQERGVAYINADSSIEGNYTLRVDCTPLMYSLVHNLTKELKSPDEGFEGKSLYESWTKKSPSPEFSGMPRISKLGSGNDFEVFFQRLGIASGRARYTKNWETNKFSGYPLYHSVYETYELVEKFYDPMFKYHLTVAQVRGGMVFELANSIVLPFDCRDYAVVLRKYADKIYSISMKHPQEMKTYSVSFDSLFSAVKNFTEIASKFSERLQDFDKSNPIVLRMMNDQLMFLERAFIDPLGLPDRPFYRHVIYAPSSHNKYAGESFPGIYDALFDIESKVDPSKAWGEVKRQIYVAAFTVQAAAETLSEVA

For Sc(picaga)-DUPA, the inhibition constant Ki (commonly the equilibrium dissociation constant of an inhibitor or competing ligand from its target) turned out to be 0.0016 ± 0.0004 µM.

Sc(DOTA)-DUPA had an inhibition constant (Ki) of 0.222 ± 0.186 µM.
